Key:
K562 cells (Bcr-Abl) = experiment: Cell survival in K562 cells (Cell Counting Kit-8); type: cell-based, human; conditions: Homo sapiens, 72 hours
Protocol: Growth of this tumor cell line is dependent upon the expression of the Bcr-Abl fusion protein (C. Gambacarti-Passerini et al., Blood Cells Mol. Dis. 23:380-394, 1997). K562 cells (20,000 cells/well) were cultured in 96-well plates and maintained at 37° C. for several hours. […] 17AAG, DMAG, and Radicical are Hsp90 inhibitors that are currently in clinical trials and are used here as positive controls for Hsp90 inhibition. […] Cell survival was measured with Cell Counting Kit-8 (Dojindo Laboratories, Cat # CK04).

[1] = system: Karpas-299 cells (NPM-ALK); experiment: Cell survival in Karpas-299 cells (Cell Counting Kit-8); type: cell-based, human; conditions: Homo sapiens, 72 hours
Protocol: Growth of this tumor cell line is dependent upon the expression of the NPM-ALK fusion protein. Karpas-299 cells (20,000 cells/well) were cultured in 96-well plates and maintained at 37° C. for several hours. The cells were incubated at 37° C. for 72 hours with various concentrations of compound 226 of the invention, 17AAG, and 17DMAG. 17AAG and 17DMAG are Hsp90 inhibitors that are currently in clinical trials and are used here as positive controls for Hsp90 inhibition. Cell survival was measured with Cell Counting Kit-8 (Dojindo Laboratories, Cat # CK04).

[2] = system: EGFR (T790M and L858R mutations); experiment: Degradation of EGFR in NCI-H1975 cells (Western blot); type: cell-based, human; conditions: 18 hours, 1.0 μM, 0.5 μM and 0.1 μM
Protocol: Non-small cell lung cancer cell line, NCI-H1975 (2×10^6 cells), which harbors both the T790M and the L858R mutations in EGFR and is resistant to erlotinib, was obtained from American Type Culture Collection and was treated with either Compound 226 (1.0 μM, 0.5 μM and 0.1 μM) or 17-AAG (1.0 μM, 0.5 μM and 0.1 μM). After 18 hours, the cells were lysed with 1× lysis buffer and a western blot was perform, and phosphorylated and total EGFR was detected with anti-EGFR antibodies.

[3] = system: human acute myelogenous leukemia tumor cell line Mv 4-11; experiment: Mv 4-11 (FLT3-ITD) nude mouse xenograft model; type: in vivo, human (xenograft in nude mouse); conditions: for % T/C value: nude mice, 3 doses
Protocol: The human acute myelogenous leukemia (AML) cell line, Mv 4-11 (ATCC #CRL-9591), was obtained from the American Type Culture Collection (ATCC; Manassas, Va., USA). Growth of this tumor cell line is dependent upon the expression of an activated form of the FLT3 tyrosine kinase receptor carrying an internal tandem duplication (ITD) mutation, which is the most common molecular defect associated with AML (K. W. Yee et al., Blood 100:2941-2949, 2002). The cells were cultured in growth media prepared with Iscove's Modified Dulbecco's Media, 10% fetal bovine serum (FBS), 1% 100× Penicillin-Streptomycin, 1% 100× sodium pyruvate and 1% 100×MEM non-essential amino acids. FBS was obtained from ATCC and all other reagents were obtained from Invitrogen Corp. (Carlsbad, Calif., USA). Cells that had been cryopreserved in liquid nitrogen were rapidly thawed at 37° C. and transferred to a tissue culture flask containing growth media and then incubated at 37° C. in a 5% CO2 incubator. To expand the cell line, cultures were passaged 1:2 to a density of 5×10 (6) cells/ml every three days by adding an equal volume of fresh growth media. When the flasks reached a density of approximately 10×10 (6) cells/ml, the above passaging process was repeated until sufficient cells had been obtained for implantation into mice.
Seven to eight week old, female Crl:CD-1-nuBR (nude) mice were obtained from Charles River Laboratories (Wilmington, Mass., USA). Animals were housed 4-5/cage in micro-isolators, with a 12 hr/12 hr light/dark cycle, acclimated for at least 1 week prior to use and fed normal laboratory chow ad libitum. Studies were conducted on animals between 8 and 10 weeks of age at implantation. To implant Mv 4-11 tumor cells into nude mice, cell cultures were centrifuged to pellet the cells, the supernatant was aspirated, the cell pellet was resuspended in 10 ml of growth media and the cell number determined using a hemocytometer. […]
Tumors were then permitted to develop in vivo until the majority reached 100-200 mm^3 in tumor volume, which typically required 1-2 weeks following implantation. […] Tumor volumes (V) were calculated by caliper measurement of the width (W), length (L) and thickness (T) of tumors using the following formula: V=0.5236×(L×W×T). Animals were randomized into treatment groups so that the median tumor volumes of each group were similar at the start of dosing. % T/C values, as a measure of efficacy, were determined as follows: • (i) If ΔT>0: % T/C=(ΔT/ΔC)×100 • (ii) If ΔT<0: % T/C=(ΔT/T0)×100 • (iii) ΔT=Change in median tumor volume between start of dosing and the end of study. • (iv) ΔC=Change in median tumor volume between start of dosing and the end of study. • (v) T0=Median tumor volume at start of dosing. […]

[4] = 125 mg/kg i.v. 1 time per week, day 41

## CC(C)c1cc(-c2nnc(O)n2-c2ccc3c(ccn3C)c2)c(O)cc1O [Compound 226, 3-(2,4-di-hydroxy-5-isopropyl-phenyl)-4-(1-methyl-indol-5-yl)-5-hydroxy-[1,2,4] triazole]
K562 cells (Bcr-Abl)
  IC50: 14 nM
[1]
  IC50: 10 nM
[2]
  degradation of phosphorylated and total EGFR: induced degradation phosphorylated and total EGFR more potently than 17AAG
[3]; [4]
  average bodyweight loss relative to the start of the study: −1.4% (+/−1.6 SEM)
  % T/C value: −93.0%
[3]; 125 mg/kg treatment group, by day 41 (end of the study)
  animals with no apparent tumors: 2 of 8
[3]; 50 mg/kg i.v. 1 time per week, day 41
  % T/C value: −63.8%
